From ChEMBL document CHEMBL3392963, “Piperazine derivatives: synthesis, inhibition of the Mycobacterium tuberculosis enoyl-acyl carrier protein reductase and SAR studies” (Eur J Med Chem, 2015)
In brackets after ≈: the same amount, converted by molar mass. Activity calls are given as the source filed them. No cut-off for these calls is given here.

Tests used:
[1] = molecular target: T1, Enoyl-[acyl-carrier-protein] reductase [NADH] (Mycobacterium tuberculosis, UniProt P9WGR1); assay: Inhibition of Mycobacterium tuberculosis recombinant InhA assessed as NADH oxidation to NAD+ using 2-trans-dodecenoyl-CoA substrate by UV/visible spectrophotometry
T1 sequence (P9WGR1 whole entry): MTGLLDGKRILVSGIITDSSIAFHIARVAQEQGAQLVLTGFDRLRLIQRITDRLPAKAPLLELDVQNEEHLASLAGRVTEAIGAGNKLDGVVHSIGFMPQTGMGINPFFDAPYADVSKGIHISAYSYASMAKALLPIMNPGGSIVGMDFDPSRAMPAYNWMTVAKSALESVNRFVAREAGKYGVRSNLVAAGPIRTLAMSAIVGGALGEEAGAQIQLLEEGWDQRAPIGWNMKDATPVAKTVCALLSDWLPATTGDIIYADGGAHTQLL

[2] = test system: Mycobacterium tuberculosis; assay: Antimycobacterial activity against Mycobacterium tuberculosis H37Rv assessed as inhibition of mycobacterial growth after 7 days by REMA method; conditions: 168 h
[3] = molecular target: T2, Enoyl-[acyl-carrier-protein] reductase [NADH] (Mycobacterium tuberculosis) (UniProt P9WGR1)
T2 sequence (whole entry): T1 sequence (P9WGR1 whole entry)
Description: Non-competitive inhibition of Mycobacterium tuberculosis recombinant InhA assessed as inhibitory dissociation constant for the enzyme-inhibitor complex by measuring NADH oxidation to NAD+ using varying 2-trans-dodecenoyl-CoA substrate and fixed NADH levels by UV/visible spectrophotometry

[4] = molecular target: T2, Enoyl-[acyl-carrier-protein] reductase [NADH] (Mycobacterium tuberculosis); remark: listed apart in the source
Description: Inhibition of Mycobacterium tuberculosis recombinant InhA assessed as NADH oxidation to NAD+ at 0.2 uM using 2-trans-dodecenoyl-CoA substrate measured up to 30 mins by UV/visible spectrophotometry

[5] = molecular target: T2, Enoyl-[acyl-carrier-protein] reductase [NADH] (Mycobacterium tuberculosis); remark: listed apart in the source
Description: Uncompetitive inhibition of Mycobacterium tuberculosis recombinant InhA assessed as inhibitory dissociation constant for the enzyme-substrate-inhibitor complex by measuring NADH oxidation to NAD+ using fixed 2-trans-dodecenoyl-CoA substrate and varying NADH levels by UV/visible spectrophotometry

[6] = molecular target: T2, Enoyl-[acyl-carrier-protein] reductase [NADH] (Mycobacterium tuberculosis); remark: listed apart in the source
Description: Non-competitive inhibition of Mycobacterium tuberculosis recombinant InhA assessed as inhibitory dissociation constant for the enzyme-substrate-inhibitor complex by measuring NADH oxidation to NAD+ using varying 2-trans-dodecenoyl-CoA substrate and fixed NADH levels by UV/visible spectrophotometry

[7] = molecular target: T2, Enoyl-[acyl-carrier-protein] reductase [NADH] (Mycobacterium tuberculosis); remark: listed apart in the source
Description: Competitive inhibition of Mycobacterium tuberculosis recombinant InhA assessed as inhibitory dissociation constant for the enzyme-inhibitor complex by measuring NADH oxidation to NAD+ using varying 2-trans-dodecenoyl-CoA substrate and fixed NADH levels by UV/visible spectrophotometry

c1ccc(CN2CCN(C3c4ccccc4-c4ccccc43)CC2)cc1
IC50 [1]: > 50 µM

O=C(c1cc(F)ccc1F)N1CCN(C2c3ccccc3-c3ccccc32)CC1
MIC [2]: > 15.3 µM | Kis [3]: 0.788 µM | TDI [4]: inactive | IC50 [1]: 1.57 µM | Kii [5]: 1.28 µM | Kii [6]: 3.25 µM

O=C(c1ccc(Cl)cc1)N1CCN(C(c2ccccc2)c2ccccc2)CC1
IC50 [1]: > 50 µM

Cc1cccc(C(=O)N2CCN(C3c4ccccc4-c4ccccc43)CC2)c1
MIC [2]: > 16.2 µM | Kis [3]: 0.162 µM | TDI [4]: inactive | IC50 [1]: 0.25 µM | Kii [5]: 0.185 µM | Kii [6]: 0.348 µM

O=S(=O)(c1ccccc1)N1CCN(C2c3ccccc3-c3ccccc32)CC1
IC50 [1]: 20 µM

O=C(c1ccccc1)N1CCN(C2c3ccccc3-c3ccccc32)CC1
MIC [2]: > 35.2 µM | IC50 [1]: 0.183 µM

Cc1ccc(C(=O)N2CCN(C(c3ccccc3)c3ccccc3)CC2)cc1
IC50 [1]: 7.83 µM

O=C(CN1CCN(C2c3ccccc3-c3ccccc32)CC1)Nc1ccccc1
IC50 [1]: > 50 µM

COc1ccc(C(=O)N2CCN(C(c3ccccc3)c3ccccc3)CC2)cc1
IC50 [1]: > 50 µM

COc1ccc(C(=O)N2CCN(C3c4ccccc4-c4ccccc43)CC2)cc1
Kis [3]: 1.6 µM | TDI [4]: inactive | IC50 [1]: 2.9 µM | Kii [5]: 1.95 µM | Kii [6]: 7.22 µM

O=C(c1ccncc1)N1CCN(C2c3ccccc3-c3ccccc32)CC1
IC50 [1]: 9.77 µM

O=C(c1ccc(Cl)cc1)N1CCN(C2c3ccccc3-c3ccccc32)CC1
Kis [3]: 2.77 µM | TDI [4]: inactive | IC50 [1]: 1.69 µM | Kii [5]: 1.12 µM | Kii [6]: 2 µM

O=C(c1ccccc1)N1CCN(C(c2ccccc2)c2ccccc2)CC1
IC50 [1]: 16 µM

O=C(c1ccc(F)cc1)N1CCN(C(c2ccccc2)c2ccccc2)CC1
IC50 [1]: > 50 µM

O=C(c1ccc(F)cc1)N1CCN(C2c3ccccc3-c3ccccc32)CC1
MIC [2]: 67.8 µM (≈ 25.3 µg/mL) | Kis [7]: 0.338 µM | TDI [4]: inactive | IC50 [1]: 0.397 µM | Kii [5]: 0.348 µM

O=C(/C=C/c1ccccc1)N1CCN(C2c3ccccc3-c3ccccc32)CC1
IC50 [1]: > 50 µM

O=C(c1cccc(F)c1)N1CCN(C2c3ccccc3-c3ccccc32)CC1
MIC [2]: > 16.1 µM | Kis [7]: 0.118 µM | TDI [4]: inactive | IC50 [1]: 0.24 µM | Kii [5]: 0.147 µM

O=C(/C=C/c1ccccc1)N1CCN(C(c2ccccc2)c2ccccc2)CC1
IC50 [1]: > 50 µM

Cc1ccccc1S(=O)(=O)N1CCN(C2c3ccccc3-c3ccccc32)CC1
IC50 [1]: > 50 µM

O=S(=O)(c1ccccc1)N1CCN(C(c2ccccc2)c2ccccc2)CC1
IC50 [1]: > 50 µM

O=C(c1ccccc1F)N1CCN(C2c3ccccc3-c3ccccc32)CC1
MIC [2]: > 16.1 µM | Kis [3]: 0.149 µM | TDI [4]: inactive | IC50 [1]: 0.361 µM | Kii [5]: 0.332 µM | Kii [6]: 0.66 µM

O=C(c1cc(F)ccc1F)N1CCN(C(c2ccccc2)c2ccccc2)CC1
IC50 [1]: > 50 µM

O=C(c1ccc([N+](=O)[O-])cc1)N1CCN(C2c3ccccc3-c3ccccc32)CC1
IC50 [1]: > 50 µM

Cc1ccccc1C(=O)N1CCN(C2c3ccccc3-c3ccccc32)CC1
IC50 [1]: 5.99 µM

Cc1ccc(C(=O)N2CCN(C3c4ccccc4-c4ccccc43)CC2)cc1
MIC [2]: 67.8 µM (≈ 25 µg/mL) | IC50 [1]: 0.222 µM
